# From ChEMBL document CHEMBL1153186, “In vitro antitubercular and antimicrobial activities of 1-substituted quinoxaline-2,3(1H,4H)-diones” (2010)
# Test system: Proteus vulgaris
# Test: Antibacterial activity against Proteus vulgaris at 100 ug/disk by agar plate disk diffusion method
# Format: functional
# Conditions: read-out: IZ
row,SMILES,zone of inhibition at 100 µg/disc [mm]
1,CC(=O)n1c(=O)c(=O)[nH]c2ccccc21,26
2,O=c1[nH]c2ccccc2n(Cn2cnc3ccccc32)c1=O,32
3,COc1cc(O)ccc1/C=C/C(=O)n1c(=O)c(=O)[nH]c2ccccc21,18
4,O=c1[nH]c2ccccc2n(Cn2nnc3ccccc32)c1=O,34
5,O=c1[nH]c2ccccc2n(CN(c2ccccc2)c2ccccc2)c1=O,30
6,O=C1c2ccccc2C(=O)N1Cn1c(=O)c(=O)[nH]c2ccccc21,31
7,O=C(/C=C/c1ccccc1)n1c(=O)c(=O)[nH]c2ccccc21,30
8,CN(C)c1ccc(/C=C/C(=O)n2c(=O)c(=O)[nH]c3ccccc32)cc1,33
9,CC1=NNC(=O)C1Cn1c(=O)c(=O)[nH]c2ccccc21 (stereo not given),32

# Test system: Pseudomonas aeruginosa
# Test: Antibacterial activity against Pseudomonas aeruginosa at 50 ug/disk by agar plate disk diffusion method
# Format: functional
# Conditions: read-out: IZ
row,SMILES,zone of inhibition at 50 µg/disc [mm]
1,CCn1cc(C(=O)O)c(=O)c2ccc(C)nc21 [NALIDIXIC ACID],22

# Test system: Staphylococcus aureus
# Test: Antibacterial activity against Staphylococcus aureus at 50 ug/disk by agar plate disk diffusion method
# Format: functional
# Conditions: read-out: IZ
row,SMILES,zone of inhibition at 50 µg/disc [mm]
1,CCn1cc(C(=O)O)c(=O)c2ccc(C)nc21 [NALIDIXIC ACID],24

# Test system: Aspergillus niger
# Test: Antifungal activity against Aspergillus niger at 50 ug/disk by agar plate disk diffusion method
# Format: functional
# Conditions: read-out: IZ
row,SMILES,zone of inhibition at 50 µg/disc [mm]
1,Clc1ccccc1C(c1ccccc1)(c1ccccc1)n1ccnc1 [CLOTRIMAZOLE],21

# Test system: Candida albicans
# Test: Antifungal activity against Candida albicans at 100 ug/disk by agar plate disk diffusion method
# Format: functional
# Conditions: read-out: IZ
row,SMILES,zone of inhibition at 100 µg/disc [mm]
1,CC(=O)n1c(=O)c(=O)[nH]c2ccccc21,0
2,O=c1[nH]c2ccccc2n(Cn2cnc3ccccc32)c1=O,18
3,COc1cc(O)ccc1/C=C/C(=O)n1c(=O)c(=O)[nH]c2ccccc21,10
4,O=c1[nH]c2ccccc2n(Cn2nnc3ccccc32)c1=O,20
5,O=c1[nH]c2ccccc2n(CN(c2ccccc2)c2ccccc2)c1=O,20
6,O=C1c2ccccc2C(=O)N1Cn1c(=O)c(=O)[nH]c2ccccc21,23
7,O=C(/C=C/c1ccccc1)n1c(=O)c(=O)[nH]c2ccccc21,18
8,CN(C)c1ccc(/C=C/C(=O)n2c(=O)c(=O)[nH]c3ccccc32)cc1,0
9,CC1=NNC(=O)C1Cn1c(=O)c(=O)[nH]c2ccccc21 (stereo not given),21

# Test system: Escherichia coli
# Test: Antibacterial activity against Escherichia coli at 100 ug/disk by agar plate disk diffusion method
# Format: functional
# Conditions: read-out: IZ
row,SMILES,zone of inhibition at 100 µg/disc [mm]
1,CC(=O)n1c(=O)c(=O)[nH]c2ccccc21,24
2,O=c1[nH]c2ccccc2n(Cn2cnc3ccccc32)c1=O,33
3,COc1cc(O)ccc1/C=C/C(=O)n1c(=O)c(=O)[nH]c2ccccc21,16
4,O=c1[nH]c2ccccc2n(Cn2nnc3ccccc32)c1=O,39
5,O=c1[nH]c2ccccc2n(CN(c2ccccc2)c2ccccc2)c1=O,30
6,O=C1c2ccccc2C(=O)N1Cn1c(=O)c(=O)[nH]c2ccccc21,30
7,O=C(/C=C/c1ccccc1)n1c(=O)c(=O)[nH]c2ccccc21,26
8,CN(C)c1ccc(/C=C/C(=O)n2c(=O)c(=O)[nH]c3ccccc32)cc1,33
9,CC1=NNC(=O)C1Cn1c(=O)c(=O)[nH]c2ccccc21 (stereo not given),37

# Test system: Proteus vulgaris
# Test: Antibacterial activity against Proteus vulgaris at 50 ug/disk by agar plate disk diffusion method
# Format: functional
# Conditions: read-out: IZ
row,SMILES,zone of inhibition at 50 µg/disc [mm]
1,CCn1cc(C(=O)O)c(=O)c2ccc(C)nc21 [NALIDIXIC ACID],34

# Test system: Aspergillus niger
# Test: Antifungal activity against Aspergillus niger at 100 ug/disk by agar plate disk diffusion method
# Format: functional
# Conditions: read-out: IZ
row,SMILES,zone of inhibition at 100 µg/disc [mm]
1,CC(=O)n1c(=O)c(=O)[nH]c2ccccc21,20
2,O=c1[nH]c2ccccc2n(Cn2cnc3ccccc32)c1=O,25
3,COc1cc(O)ccc1/C=C/C(=O)n1c(=O)c(=O)[nH]c2ccccc21,16
4,O=c1[nH]c2ccccc2n(Cn2nnc3ccccc32)c1=O,28
5,O=c1[nH]c2ccccc2n(CN(c2ccccc2)c2ccccc2)c1=O,28
6,O=C1c2ccccc2C(=O)N1Cn1c(=O)c(=O)[nH]c2ccccc21,23
7,O=C(/C=C/c1ccccc1)n1c(=O)c(=O)[nH]c2ccccc21,24
8,CN(C)c1ccc(/C=C/C(=O)n2c(=O)c(=O)[nH]c3ccccc32)cc1,0
9,CC1=NNC(=O)C1Cn1c(=O)c(=O)[nH]c2ccccc21 (stereo not given),23

# Test system: Escherichia coli
# Test: Antibacterial activity against Escherichia coli at 50 ug/disk by agar plate disk diffusion method
# Format: functional
# Conditions: read-out: IZ
row,SMILES,zone of inhibition at 50 µg/disc [mm]
1,CCn1cc(C(=O)O)c(=O)c2ccc(C)nc21 [NALIDIXIC ACID],25

# Test system: Candida albicans
# Test: Antifungal activity against Candida albicans at 50 ug/disk by agar plate disk diffusion method
# Format: functional
# Conditions: read-out: IZ
row,SMILES,zone of inhibition at 50 µg/disc [mm]
1,Clc1ccccc1C(c1ccccc1)(c1ccccc1)n1ccnc1 [CLOTRIMAZOLE],13

# Test system: Pseudomonas aeruginosa
# Test: Antibacterial activity against Pseudomonas aeruginosa at 100 ug/disk by agar plate disk diffusion method
# Format: functional
# Conditions: read-out: IZ
row,SMILES,zone of inhibition at 100 µg/disc [mm]
1,CC(=O)n1c(=O)c(=O)[nH]c2ccccc21,29
2,O=c1[nH]c2ccccc2n(Cn2cnc3ccccc32)c1=O,35
3,COc1cc(O)ccc1/C=C/C(=O)n1c(=O)c(=O)[nH]c2ccccc21,18
4,O=c1[nH]c2ccccc2n(Cn2nnc3ccccc32)c1=O,39
5,O=c1[nH]c2ccccc2n(CN(c2ccccc2)c2ccccc2)c1=O,35
6,O=C1c2ccccc2C(=O)N1Cn1c(=O)c(=O)[nH]c2ccccc21,34
7,O=C(/C=C/c1ccccc1)n1c(=O)c(=O)[nH]c2ccccc21,29
8,CN(C)c1ccc(/C=C/C(=O)n2c(=O)c(=O)[nH]c3ccccc32)cc1,31
9,CC1=NNC(=O)C1Cn1c(=O)c(=O)[nH]c2ccccc21 (stereo not given),39

# Test system: Staphylococcus aureus
# Test: Antibacterial activity against Staphylococcus aureus at 100 ug/disk by agar plate disk diffusion method
# Format: functional
# Conditions: read-out: IZ
row,SMILES,zone of inhibition at 100 µg/disc [mm]
1,CC(=O)n1c(=O)c(=O)[nH]c2ccccc21,20
2,O=c1[nH]c2ccccc2n(Cn2cnc3ccccc32)c1=O,36
3,COc1cc(O)ccc1/C=C/C(=O)n1c(=O)c(=O)[nH]c2ccccc21,16
4,O=c1[nH]c2ccccc2n(Cn2nnc3ccccc32)c1=O,29
5,O=c1[nH]c2ccccc2n(CN(c2ccccc2)c2ccccc2)c1=O,26
6,O=C1c2ccccc2C(=O)N1Cn1c(=O)c(=O)[nH]c2ccccc21,29
7,O=C(/C=C/c1ccccc1)n1c(=O)c(=O)[nH]c2ccccc21,20
8,CN(C)c1ccc(/C=C/C(=O)n2c(=O)c(=O)[nH]c3ccccc32)cc1,18
9,CC1=NNC(=O)C1Cn1c(=O)c(=O)[nH]c2ccccc21 (stereo not given),33
